In paper PMC2974656, “Selective killing of human immunodeficiency virus infected cells by non-nucleoside reverse transcriptase inhibitor-induced activation of HIV protease” (Retrovirology, 2010):

Columns and labels:
[1] = test system: intracellular Gag processing by HIV PR; format: cell-based, HIV-1
Method: In previous studies, high concentrations of NNRTI (5 μM) were required to observe NNRTI mediated activation of intracellular HIV PR activity. […]. Towards this end, we developed a biochemical assay for gel independent quantitation of intracellular Gag processing by HIV PR in the context of a virus producing cell. We had previously shown that additional protein domains, consisting of small epitope tags or even the 27 kDa green fluorescent protein (EGFP), can be inserted between the MA and CA domains of the Gag and Gag-Pol polyproteins without affecting polyprotein production or processing by HIV PR [36]. Based on this, we designed a HIV reporter construct which contained a small N-terminal fragment ('alpha peptide') of Escherichia coli beta-galactosidase (β-Gal), flanked by two HIV PR recognition sites, between the MA and CA coding sequences of Gag (Figure 1A). […] This so called alpha complementation principle can be exploited for use in mammalian cells and has been employed for the establishment of various cell based biochemical assay systems. We reasoned that embedding of the small alpha peptide within the multi-domain polyproteins Gag or Gag-Pol, respectively, should impair its productive association with the omega subunit, while proteolytic release of the alpha peptide from the polyprotein by PR would allow the formation of enzymatically active β-Gal. This should allow us to monitor intracellular Gag and Gag-Pol processing through increased β-Gal activity.
Reconstituted β-Gal activity in cell lysates was measured by cleavage of the chromogenic substrate CPRG [42] as described in Methods.
The activity of β-Gal in cell lysates from transfected 293T cells was measured by enzymatic cleavage of the chromogenic β-Gal substrate chlorphenolred-β-D-galactopyranoside (CPRG, Roche; [42]). At 44 h post transfection, cells were briefly rinsed with PBS and suspended in reporter gene assay lysis buffer (Roche, 600 μl per 6-well dish) supplemented with a protease inhibitor mix (Roche). Cell suspensions were incubated for 10 min at room temperature and cell debris was subsequently removed by brief centrifugation. Five μl of supernatant were diluted in 96-well plates with 95 μl CPRG reaction buffer (50 mM potassium phosphate, pH 7.5, 1 mM MgCl2) and pre-warmed for 5 min to 37°C. 100 μl of pre-warmed reaction mix (100 μM CPRG in CPRG reaction buffer supplemented with protease inhibitor cocktail and 40 μM β-mercaptoethanol) were added and β-Gal mediated cleavage of CPRG was monitored by recording absorption at 592 nm every 2 min for 20 min at 37°C using a TECAN Safire multi-well reader. OD592 values were plotted over time and relative reaction rates (OD592/min) were determined from the initial linear velocities.

Gag processing by HIV PR = test: Immunoblot analysis of Gag processing in transfected 293T cells; format: cell-based, HIV-1; details: 2 μM LPV
Method: 293T cells were seeded in 6-well plates and transfected with the indicated constructs using FuGene6 (Roche) according to the manufacturer's instructions. Cell lysates and tissue culture supernatants were harvested at 44-48 h post transfection. Virus was purified by ultracentrifugation through a 20% (w/w) sucrose cushion. Cell lysates, tissue culture supernatants or pelleted viral particles were separated by SDS-PAGE (17.5% acrylamide; acrylamide:bisacrylamide 200:1). Proteins were transferred to nitrocellulose by semi-dry blotting and detected using polyclonal antisera raised against recombinant HIV-1 CA or MA, or a commercial antiserum against β-Gal (Abcam, ab616), respectively.

[2] = test system: intracellular Gag processing by HIV PR; format: cell-based, HIV-1; details: 2 μM LPV, 48 h post transfection; DMSO control 0.109 min^-1
HIV-1IIIB = test: Direct antiviral activity: MT4-LTR-EGFP cells infected with HIV-1IIIB, EGFP fluorescence; format: cell-based; details: Human immunodeficiency virus 1, 72 h, read-out: Inhibition of HIV replication in vitro EC50
Method: After 3 days of incubation, infected cells were quantified by determination of total EGFP fluorescence per well based on microscopy and subsequent image analysis. Threshold values were determined from the average pixel value plus 6 standard deviations from the uninfected control wells, and the median threshold from all control wells on a plate was defined as baseline GFP expression. Intensity values for the sample wells were then determined by subtracting the background threshold from each pixel value obtained from the image of the respective well and calculating the sum of net pixel intensities. Percent inhibition was calculated as 100 * (1 - (Sample - CC)/(VC - CC)).

[3] = Cytotoxicity on uninfected control cells, EGFP fluorescence per well; format: cell-based; details: human, MT4-CMV-EGFP control cells (uninfected); 4 days; mean ± SD; tested up to 10 μM; read-out: Cytotoxicity on MT4-CMV-EGFP control cells CC50
Method: (§1) The cytotoxicity of inhibitors was determined in parallel on MT4-CMV-EGFP control cells and on MT4-LTR-EGFP-IIIB virus producing cells, respectively.

in vitro = format: cell-based; details: human, 4 days
Method: as §1

[4] = test system: MT4-LTR-EGFP-IIIB HIV-1 producing cells; test: in vitro; format: cell-based; details: summary of Table 1
Method: as §1

[5] = parameters: method as in PMID 12545140; details: under therapy; cited from earlier work

SMILES	β-Gal activity in the cell lysates ([1]; 2 μM LPV, result in words)	Gagα processing as determined by immunoblot (Gag processing by HIV PR)	Relative rate of CPRG cleavage [2]	EC50 (HIV-1IIIB)	Gag processing or β-Gal activity, pCHIV.MAα variant with D25A mutation (PR-) ([1]; 5 μM EFV)	β-Gal activity, pCHIV.MAα 2PR (linked PR dimer) ([1]; 5 μM EFV)	β-Gal activity, pCHIV.MAα ([1]; 5 μM EFV, equal amounts of pCHIV.MAα and pCMVω)	Concentration required to achieve the maximal effect on β-Gal activity ([1]; 293T cells, 44 h post transfection)	CC50 at 4 days [3]	CC50 at 4 days (in vitro; no DRV, mean ± SD, tested up to 10 μM, read-out: Cytotoxicity on MT4-LTR-EGFP-IIIB HIV-1 producing cells CC50)	CC50 at 4 days (in vitro; CC50 on virus producing cells in the absence of DRV, one representative experiment (Fig. 3C), 4 parameter fit)	Cytotoxicity on MT4-LTR-EGFP-IIIB cells, in words [4]	Peak serum levels [5]
Cc1cccc(C)c1OCC(=O)N[C@@H](Cc1ccccc1)[C@@H](O)C[C@H](Cc1ccccc1)NC(=O)[C@H](C(C)C)N1CCCNC1=O [LPV, lopinavir]	reduced, but did not abolish	nearly completely blocked	0.054 min⁻¹	–	–	–	–	–	–	–	–	–	–
O=C1Nc2ccc(Cl)cc2[C@@](C#CC2CC2)(C(F)(F)F)O1 [EFV, efavirenz]	–	–	–	1.9 ± 0.9 nM	no increase	No effect	significant increase	~ 1 μM	> 10000 nM	1710 ± 430 nM	2440 nM	less cytotoxic	micromolar range
